# From US20030207924A1, “Compounds that modulate PPAR activity and methods of preparation” (priority 2002, published 2003)
# Like-named read-outs stand apart in the source and are kept apart here.
# What was measured:
# hPPARβ chimeric receptor = target: T1, hPPARβ chimeric receptor (Homo sapiens, UniProt Q03181); assay: Transient transfection assay in HepG2 cells, Gal4-hPPARβ chimeric receptor, luciferase reporter (Test A); type: cell-based; conditions: for EC50-β (Hep G2-hBeta EC50): HepG2 cells, hPPARβ chimeric receptor, luciferase reporter, 24 hours
# T1 construct: "expression plasmids encoding hPPARα, hPPARβ or mPPARγ chimeric receptors"
# T1 sequence (Q03181 171-441 limits assumed): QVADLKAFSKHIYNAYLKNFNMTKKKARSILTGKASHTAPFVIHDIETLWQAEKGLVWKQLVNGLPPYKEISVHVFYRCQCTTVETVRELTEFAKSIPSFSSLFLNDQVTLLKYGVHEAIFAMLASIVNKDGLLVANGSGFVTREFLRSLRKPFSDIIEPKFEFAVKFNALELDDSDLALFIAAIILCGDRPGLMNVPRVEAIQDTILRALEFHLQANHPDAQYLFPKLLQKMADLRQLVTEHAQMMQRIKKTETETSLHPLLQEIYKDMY
# Description: (§1) 1. Test A. Transient Transfections Assay Using the HepG2 Hepatoma Cell Line.
# (§2) HepG2 cells were transiently transfected with an expression plasmids encoding hPPARα, hPPARβ or mPPARγ chimeric receptors and a reporter containing the yeast upstream activating sequence (UAS) upstream of the viral E1B promoter controlling a luciferase reporter gene. In addition, the plasmid pRSVβ-gal was used to control for transfection efficiency. HepG2 cells were grown in DMEM supplemented with 10% FBS and […] non-essential amino acid. On the first day, cells were split into 100 mm dishes at 2.5×10^6/dish and incubated overnight at 37° C./5% CO2. On the second day the cells were transiently transfected with plasmid DNA encoding a chimeric receptor, the luciferase reporter gene; and β-gal. For each 100 mm dish, 15 μg of lucifease reporter (PG5E1b) DNA, 15 μg of Gal4-PPAR chimeric receptor DNA, and 1.5 μg of β-gal plasmid DNA were mixed with 1.4 ml of opti-MEM in the tube. 28 μl of LipoFectamine-2000 reagent was added to 1.4 ml of opti-MEM in the tube, and incubate for 5 min at RT. The diluted Lipofectamine-2000 reagent was combined with the DNA mixture, and incubate for 20 min at RT. After fresh medium was added to each 100 mm dish of cells, 2.8 ml of Lipofectamine2000-DNA mixture was added dropwise to the 100 mm dish containing 14 ml of medium, and incubate 37° C. overnight. On day three cells were trypsinized off the 100 mm dishes and re-plated on 96 well plates. Cells were plated at 2.5×10^4 cells per well in 150 μl of media and 50 μl of compound diluted by media was added. The test compounds added were in the range from 50 μM to 50 pM. After addition of compounds, the plates were incubated at 37° C. for 24 hours. Subsequently cells were washed with once with 100 μl of PBS, lysed, and processed for measuring luciferase and β-gal activity using Dual-Light luciferase kit from Tropix®, according to the manufacturer's recommendations, on an EG&G Bethold MicroLumat LB96P luminometer. EC50 values were obtained using the GraphPad Prism™ program.
# hPPARα chimeric receptor = target: T2, hPPARα chimeric receptor (Homo sapiens, UniProt Q07869); assay: Transient transfection assay in HepG2 cells, Gal4-hPPARα chimeric receptor, luciferase reporter (Test A); type: cell-based
# T2 construct: "expression plasmids encoding hPPARα, hPPARβ or mPPARγ chimeric receptors"
# T2 sequence (Q07869 200-468 limits assumed): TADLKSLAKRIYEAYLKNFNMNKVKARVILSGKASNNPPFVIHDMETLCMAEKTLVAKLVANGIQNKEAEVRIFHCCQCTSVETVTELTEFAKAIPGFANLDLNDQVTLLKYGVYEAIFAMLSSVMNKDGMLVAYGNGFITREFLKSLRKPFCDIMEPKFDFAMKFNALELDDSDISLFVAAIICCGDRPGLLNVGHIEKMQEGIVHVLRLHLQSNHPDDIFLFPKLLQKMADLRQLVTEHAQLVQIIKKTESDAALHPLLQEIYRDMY
# Description: as §1
# as §2, with “program. […] Accordingly, the compounds of the present invention should find considerable therapeutic applications for hypercholesterolemia and hyperlipidemia.” for “program.”
# [1] = HepG2 cells, hPPARα chimeric receptor, luciferase reporter, 24 hours, read-out: EC50-α (Hep G2-hAlpha EC50)
SMILES,EC50 (hPPARβ chimeric receptor) [nM],EC50 (hPPARα chimeric receptor; [1]) [nM],EC50 (hPPARα chimeric receptor) [nM],EC50-β (Hep G2-hBeta EC50) (hPPARβ chimeric receptor) [mM]
"CC(=O)Nc1cc(OCC(=O)O)c(C)cc1SCc1sc(-c2ccc(C(F)(F)F)cc2)nc1C [Example 25, 2-[5-(acetylamino)-2-methyl-4-({4-methyl-2-[4-(trifluoromethyl)phenyl](1,3-thiazol-5-yl)}methylthio)phenoxy]acetic acid]",–,–,–,2
"COc1cc(SCc2sc(-c3ccc(C(F)(F)F)cc3)nc2C)c(OC)cc1CCC(=O)O [Example 20, 3-{2,5-Dimethoxy-4-[4-methyl-2-(4-trifluoromethyl-phenyl)-thiazol-5-ylmethylsulfanyl]-phenyl}-propionic acid]",34.9,146,–,–
"COc1cc(OCC(=O)O)cc(C)c1SCc1sc(-c2ccc(C(F)(F)F)cc2)nc1C [Example 8, {3-Methoxy-5-methyl-4-[4-methyl-2-(4-trifluoromethyl-phenyl)-thiazol-5-ylmethylsulfanyl]-phenoxy}-acetic acid]",45.3,840,–,–
COc1cc(CN2CCCC2C(=O)O)ccc1SCc1sc(-c2ccc(C(F)(F)F)cc2)nc1C (stereo not drawn) [Example 29],–,–,–,2
"Cc1cc(SCc2sc(-c3ccc(C(F)(F)F)cc3)nc2C)c(Cl)cc1OCC(=O)O [Example 31, {5-Chloro-2-methyl-4-[4-methyl-2-(4-trifluoromethyl-phenyl)-thiazol-5-ylmethylsulfanyl]-phenoxy}-acetic acid]",105,2050,–,–
"Cc1cc(SCc2sc(-c3ccc(C(F)(F)F)cc3)nc2C)c(C(C)C)cc1OCC(=O)O [Example 3, {5-Isopropyl-2-methyl-4-[4-methyl-2-(4-trifluoromethyl-phenyl)-thiazol-5-ylmethylsulfanyl]-phenoxy}-acetic acid]",1280,538,–,–
"Cc1nc(-c2ccc(C(F)(F)F)cc2)sc1CSc1ccc(C(C)(C)CC(=O)O)cc1 [Example 18, 3-Methyl-3-{4-[4-methyl-2-(4-trifluoromethyl-phenyl)-thiazol-5-ylmethylsulfanyl]-phenyl}-butyric acid]",803,–,–,–
"Cc1nc(-c2ccc(C(F)(F)F)cc2)sc1CSc1ccc(C2CCC(CC(=O)O)CC2)cc1 (stereo not drawn) [Example 33, (4-{4-[4-Methyl-2-(4-trifluoromethyl-phenyl)-thiazol-5-ylmethylsulfanyl]-phenyl}-cyclohexyl)-acetic acid]",–,–,–,2
"COc1cc(OCC(=O)O)c(C)cc1SCc1sc(-c2ccc(C(F)(F)F)cc2)nc1C [Example 5, {5-Methoxy-2-methyl-4-[4-methyl-2-(4-trifluoromethyl-phenyl)-thiazol-5-ylmethylsulfanyl]-phenoxy}-acetic acid]",2.3,121,–,–
"Cc1cc(OCC(=O)O)c(C(C)C)cc1SCc1sc(-c2ccc(C(F)(F)F)cc2)nc1C [Example 9, {2-Isopropyl-5-methyl-4-[4-methyl-2-(4-trifluoromethyl-phenyl)-thiazol-5-ylmethylsulfanyl]-phenoxy}-acetic acid]",891,5750,–,–
"COc1cc(OC)c(SCc2sc(-c3ccc(C(F)(F)F)cc3)nc2C)cc1CC(=O)O [Example 21, {2,4-Dimethoxy-5-[4-methyl-2-(4-trifluoromethyl-phenyl)-thiazol-5-ylmethylsulfanyl]}-acetic acid]",1250,442,–,–
"CCc1cc(OCC(=O)O)c(C)cc1SCc1sc(-c2ccc(C(F)(F)F)cc2)nc1C [Example 2, {5-Ethyl-2-methyl-4-[4-methyl-2-(4-trifluoromethyl-phenyl)-thiazol-5-ylmethylsulfanyl]-phenoxy}-acetic acid]",361,1230,–,–

# Now from value to molecule, other results behind:
EC50 (hPPARβ chimeric receptor) [nM],EC50 (hPPARα chimeric receptor; [1]) [nM],EC50 (hPPARα chimeric receptor) [nM],SMILES,EC50-β (Hep G2-hBeta EC50) (hPPARβ chimeric receptor) [mM]
47.6,1100,–,"Cc1nc(-c2ccc(C(F)(F)F)cc2)sc1CSc1ccc(C2(C(=O)O)CC2)cc1 [Example 13, 1-{4-[4-Methyl-2-(4-trifluoromethyl-phenyl)-thiazol-5-ylmethylsulfanyl]-phenyl}-cyclopropanecarboxylic acid]",–
303,135,–,"Cc1nc(-c2ccc(C(F)(F)F)cc2)sc1CSc1ccc([C@@H]2CC2C(=O)O)cc1 (stereo in doubt) [Example 12, 2-{4-[4-Methyl-2-(4-trifluoromethyl-phenyl)-thiazol-5-ylmethylsulfanyl]-phenyl}-cyclopropanecarboxylic acid]",–
14.4,42,–,"Cc1cc(SCc2sc(-c3ccc(C(F)(F)F)cc3)nc2C)c(C)cc1OCC(=O)O [Example 1, {2,5-Dimethyl-4-[4-methyl-2-(4-trifluoromethyl-phenyl)-thiazol-5-ylmethylsulfanyl]-phenoxy}-acetic acid]",–
649,–,625,"COCc1cc(OCC(=O)O)c(C)cc1SCc1sc(-c2ccc(C(F)(F)F)cc2)nc1C [Example 32, 2-[5-(methoxymethyl)-2-methyl-4-({4-methyl-2-[4-(trifluoromethyl)phenyl](1,3-thiazol-5-yl)}methylthio)phenoxy]acetic acid]",–
0.07,170,–,"Cc1cc(SCc2sc(-c3ccc(C(F)(F)F)cc3)nc2C)c(F)cc1OCC(=O)O [Example 26, 2-[5-fluoro-2-methyl-4-({4-methyl-2-[4-(trifluoromethyl)phenyl](1,3-thiazol-5-yl)}methylthio)phenoxy]acetic acid]",–
23.4,161,–,"Cc1cc(SCc2sc(-c3ccc(C(F)(F)F)cc3)nc2C)cc(C)c1OCC(=O)O [Example 4, {2,6-Dimethyl-4-[4-methyl-2-(4-trifluoromethyl-phenyl)-thiazol-5-ylmethylsulfanyl]-phenoxy}-acetic acid]",–
1120,1540,–,"COc1cc(OC)c(SCc2sc(-c3ccc(C(F)(F)F)cc3)nc2C)cc1CCC(=O)O [Example 19, 3-{2,4-Dimethoxy-5-[4-methyl-2-(4-trifluoromethyl-phenyl)-thiazol-5-ylmethylsulfanyl]-phenyl}-propionic acid]",–
1950,1230,–,"Cc1nc(-c2ccc(C(F)(F)F)cc2)sc1CSc1ccc(OCCC(=O)O)cc1 [Example 16, 3-{4-[4-Methyl-2-(4-trifluoromethyl-phenyl)-thiazol-5-ylmethylsulfanyl]-phenoxy}-propionic acid]",–
